The text below walks through data of patent US8124381B2, “Process and materials for production of glucosamine and N-acetylglucosamine” (Arkion Life Sciences, priority 2002, dated 2012).

“Also recorded” adds a separate entry of the source.

Assay [1] has as its target T1, E. coli glucosamine synthase GlmS*54 (Escherichia coli, UniProt P17169, A39T/G472S/R250C).
T1 construct: made in house; host or cells: E. coli 7107-18 (printed '7017-18'; T7-glmS*54 integrated at galK) and strains derived from it; crude extract
Nature of the assay: Effects of phosphorylated sugars on glucosamine synthase. In kind it is biochemical. The method, then: (§1) Glucosamine synthetase activity was examined in the presence of various phosphorylated sugars. Crude enzyme extracts was prepared from cells of 7017-18 grown in shake flasks for 24 hours with lactose induction.

Assay [2] addresses T2, E. coli GlmS (glucosamine-6-phosphate synthase), wild type, SEQ ID NO:2 (strain 2123-12) (Escherichia coli, UniProt P17169).
T2 construct: made in house; host or cells: E. coli strain 2123-12 (T7-glmS integrated in the chromosome), crude cell extract
Nature of the assay: GlmS (glucosamine synthase) inhibition and Michaelis-Menten kinetics, crude extract of strain 2123-12. In kind it is biochemical. The method, then: (§2) Different glucosamine synthetase enzymes, including native B. subtillus GlmS, native E. coli GlmS and mutant E. coli GlmS, were studied in vitro. Cells of various E. coli strains were grown in the M9A medium, harvested, and frozen. Cells extracts were prepared and the glucosamine synthetases were characterized and compared.
(§3) Enzyme sensitivities to the reaction product glucosamine-6-P were examined. […] This figure highlights the dramatic difference between the wild type GlmS and these mutant GlmS strains.
(§4) The Mutants 2123-54 and the B. subtilis enzyme have higher Ki values (Table 6). Measured Ki constants for several of these mutants are 4 to 8 times the value for the native enzyme in strain 2123-12. From shake flask studies it is apparent that decreased sensitivity to glucosamine-6-P allows higher glucosamine levels to accumulate.
(§5) These values are slightly higher than those obtained with the native enzyme.

Assay [3] deals with phosphoglucoisomerase (Pgi). The following applies: cited from earlier work.
The target of assay [4] is phosphoglucoisomerase (Pgi) (Escherichia coli, UniProt P0A6T1). The following applies: literature; cited from earlier work.
Sequence of phosphoglucoisomerase (Pgi) (Escherichia coli, UniProt P0A6T1) (P0A6T1 whole entry): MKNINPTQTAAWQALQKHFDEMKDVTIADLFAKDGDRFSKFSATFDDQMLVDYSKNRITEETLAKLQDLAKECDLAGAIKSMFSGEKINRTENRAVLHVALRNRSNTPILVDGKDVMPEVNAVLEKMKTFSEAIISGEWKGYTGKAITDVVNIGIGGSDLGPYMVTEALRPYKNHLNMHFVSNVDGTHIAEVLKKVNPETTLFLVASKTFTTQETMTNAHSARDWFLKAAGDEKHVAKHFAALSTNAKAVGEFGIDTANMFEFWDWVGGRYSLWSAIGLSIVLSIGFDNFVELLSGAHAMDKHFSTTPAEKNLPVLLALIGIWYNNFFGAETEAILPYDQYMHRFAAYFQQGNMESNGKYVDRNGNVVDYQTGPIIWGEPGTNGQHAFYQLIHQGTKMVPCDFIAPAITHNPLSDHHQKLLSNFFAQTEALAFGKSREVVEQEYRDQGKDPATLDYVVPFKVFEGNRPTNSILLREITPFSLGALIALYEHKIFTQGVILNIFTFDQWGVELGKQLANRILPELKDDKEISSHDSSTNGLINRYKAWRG
The target of assay [5] is T3, E. coli GlmS mutant GlmS*54, SEQ ID NO:6 (Ala39Thr, Arg250Cys, Gly472Ser) (strain 2123-54) (Escherichia coli, UniProt P17169, A39T/G472S/R250C).
T3 construct: made in house; host or cells: E. coli strain 2123-54 (lacZ::T7-glmS*54), crude cell extract
T3 sequence (P17169 2-609 A39T/R250C/G472S): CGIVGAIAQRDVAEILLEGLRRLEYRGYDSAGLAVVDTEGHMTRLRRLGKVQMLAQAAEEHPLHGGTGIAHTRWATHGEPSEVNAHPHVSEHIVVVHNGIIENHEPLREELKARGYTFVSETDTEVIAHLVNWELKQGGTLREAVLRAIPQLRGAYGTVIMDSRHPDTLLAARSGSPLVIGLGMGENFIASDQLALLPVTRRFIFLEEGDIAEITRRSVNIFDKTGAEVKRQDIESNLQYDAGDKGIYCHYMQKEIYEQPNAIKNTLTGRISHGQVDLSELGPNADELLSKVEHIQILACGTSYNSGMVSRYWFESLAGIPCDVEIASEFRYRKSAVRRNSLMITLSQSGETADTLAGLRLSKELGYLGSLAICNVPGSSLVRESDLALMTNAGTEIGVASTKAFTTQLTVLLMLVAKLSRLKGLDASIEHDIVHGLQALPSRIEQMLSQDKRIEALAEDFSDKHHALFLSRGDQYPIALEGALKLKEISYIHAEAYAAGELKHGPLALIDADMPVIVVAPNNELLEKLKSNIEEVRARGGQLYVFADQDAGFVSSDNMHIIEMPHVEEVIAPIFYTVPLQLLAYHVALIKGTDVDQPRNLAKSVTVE
Description: GlmS inhibition and Michaelis-Menten kinetics, crude extract of strain 2123-54. It counts as biochemical. On the procedure:
as §2, §3, §4, §5

For assay [6], the target named is glucose-6-P dehydrogenase (zwf) (Escherichia coli, UniProt P0AC53, A9V). Description: Effect of phosphorylated amino sugars on glucose-6-P dehydrogenase. The following applies: in vitro, FIG. 16. In kind it is biochemical.
Sequence of glucose-6-P dehydrogenase (zwf) (P0AC53 whole entry A9V): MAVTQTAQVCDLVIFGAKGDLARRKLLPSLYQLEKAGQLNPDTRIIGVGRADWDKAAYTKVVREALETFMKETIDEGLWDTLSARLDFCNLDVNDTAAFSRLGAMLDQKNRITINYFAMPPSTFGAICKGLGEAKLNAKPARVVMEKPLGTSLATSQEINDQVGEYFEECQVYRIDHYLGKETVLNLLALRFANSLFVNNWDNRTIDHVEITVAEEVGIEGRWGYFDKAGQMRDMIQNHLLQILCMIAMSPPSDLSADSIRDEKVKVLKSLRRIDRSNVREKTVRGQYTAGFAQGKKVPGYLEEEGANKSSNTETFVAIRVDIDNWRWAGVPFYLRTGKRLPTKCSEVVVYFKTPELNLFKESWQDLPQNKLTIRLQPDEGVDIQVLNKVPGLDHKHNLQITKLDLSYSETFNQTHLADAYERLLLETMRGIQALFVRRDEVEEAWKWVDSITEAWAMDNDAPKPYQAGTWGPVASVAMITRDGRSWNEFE
For assay [7], the target named is T4, Bacillus subtilis GlmS, wild type, SEQ ID NO:16 (Bacillus subtilis, UniProt P0CI73).
T4 construct: made in house; host or cells: E. coli 7107-24 (7101-17(DE3) with pET24d(+)/B. subtilis glmS from ATCC23856), crude cell extract
T4 sequence (P0CI73 2-600): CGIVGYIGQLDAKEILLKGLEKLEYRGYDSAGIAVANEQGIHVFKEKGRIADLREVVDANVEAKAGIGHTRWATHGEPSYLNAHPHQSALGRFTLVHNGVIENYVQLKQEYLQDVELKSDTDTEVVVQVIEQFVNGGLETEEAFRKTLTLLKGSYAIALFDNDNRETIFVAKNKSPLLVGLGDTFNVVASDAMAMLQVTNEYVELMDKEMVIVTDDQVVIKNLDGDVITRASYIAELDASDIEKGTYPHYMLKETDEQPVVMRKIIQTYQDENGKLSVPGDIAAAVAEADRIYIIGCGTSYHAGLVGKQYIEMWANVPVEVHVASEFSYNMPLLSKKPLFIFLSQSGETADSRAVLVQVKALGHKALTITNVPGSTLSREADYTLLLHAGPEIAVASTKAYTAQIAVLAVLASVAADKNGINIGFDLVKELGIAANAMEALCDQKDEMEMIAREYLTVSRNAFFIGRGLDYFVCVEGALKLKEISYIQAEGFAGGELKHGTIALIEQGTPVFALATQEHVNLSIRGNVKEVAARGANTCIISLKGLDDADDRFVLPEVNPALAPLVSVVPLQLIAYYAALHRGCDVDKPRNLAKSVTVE
Description: biochemical. On the procedure: as §2
Enzyme sensitivities to the reaction product glucosamine-6-P were examined.

Assay [8] addresses T5, E. coli GlmS mutant GlmS*72, SEQ ID NO:14 (Glu15Lys, Asp387Val, Ser450Pro, Glu525Gly) (strain 2123-72) (Escherichia coli, UniProt P17169, D387V/E15K/E525G/S450P).
T5 construct: made in house; host or cells: E. coli strain 2123-72 (from 7101-17(DE3), plasmid with glmS*72 integrated), cell extract
Nature of the assay: GlmS inhibition and Michaelis-Menten kinetics. In kind it is biochemical. The method, then:
as §2, §3, §4, §5

Assay [9] deals with T6, E. coli GlmS mutant GlmS*124, SEQ ID NO:8 (Leu469Pro) (strain 2123-124) (Escherichia coli, UniProt P17169, L469P).
T6 construct: made in house; host or cells: E. coli strain 2123-124, cell extract
T6 sequence (P17169 2-609 L469P): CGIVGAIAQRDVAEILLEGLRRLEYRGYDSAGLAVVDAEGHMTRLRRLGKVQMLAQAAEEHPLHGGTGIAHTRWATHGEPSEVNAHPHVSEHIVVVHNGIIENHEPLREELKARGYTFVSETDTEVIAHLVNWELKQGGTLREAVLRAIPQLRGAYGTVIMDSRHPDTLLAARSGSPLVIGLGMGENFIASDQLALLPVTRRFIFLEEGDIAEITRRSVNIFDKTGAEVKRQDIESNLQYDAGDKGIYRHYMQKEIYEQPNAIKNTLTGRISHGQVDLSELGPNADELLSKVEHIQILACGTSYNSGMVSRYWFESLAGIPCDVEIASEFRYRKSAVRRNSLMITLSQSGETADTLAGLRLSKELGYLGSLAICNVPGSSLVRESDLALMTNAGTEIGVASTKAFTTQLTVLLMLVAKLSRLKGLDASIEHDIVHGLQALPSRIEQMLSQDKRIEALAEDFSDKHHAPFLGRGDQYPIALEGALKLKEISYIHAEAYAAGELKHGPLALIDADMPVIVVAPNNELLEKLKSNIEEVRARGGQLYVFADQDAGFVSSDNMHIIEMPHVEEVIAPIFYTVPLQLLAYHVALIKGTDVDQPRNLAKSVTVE
Description: GlmS inhibition and Michaelis-Menten kinetics. In kind it is biochemical. On the procedure: as §2, §3, §4, §5

The target in assay [10] is E. coli GlmS mutant GlmS*69 (Escherichia coli, UniProt P17169). Description: GlmS inhibition and Michaelis-Menten kinetics. In kind it is biochemical. The following applies: read-out: Ki (GlcN-6-P). The method, then:
as §2, §3, §4, §5

In assay [11] the target is E. coli GlmS mutant GlmS*110 (Escherichia coli, UniProt P17169). Description: GlmS inhibition and Michaelis-Menten kinetics. In kind it is biochemical. The settings on record: read-out: Ki (GlcN-6-P). The method, then: as §2, §3, §4, §5
Sequence of E. coli GlmS mutant GlmS*110 (P17169 whole entry, change not shown): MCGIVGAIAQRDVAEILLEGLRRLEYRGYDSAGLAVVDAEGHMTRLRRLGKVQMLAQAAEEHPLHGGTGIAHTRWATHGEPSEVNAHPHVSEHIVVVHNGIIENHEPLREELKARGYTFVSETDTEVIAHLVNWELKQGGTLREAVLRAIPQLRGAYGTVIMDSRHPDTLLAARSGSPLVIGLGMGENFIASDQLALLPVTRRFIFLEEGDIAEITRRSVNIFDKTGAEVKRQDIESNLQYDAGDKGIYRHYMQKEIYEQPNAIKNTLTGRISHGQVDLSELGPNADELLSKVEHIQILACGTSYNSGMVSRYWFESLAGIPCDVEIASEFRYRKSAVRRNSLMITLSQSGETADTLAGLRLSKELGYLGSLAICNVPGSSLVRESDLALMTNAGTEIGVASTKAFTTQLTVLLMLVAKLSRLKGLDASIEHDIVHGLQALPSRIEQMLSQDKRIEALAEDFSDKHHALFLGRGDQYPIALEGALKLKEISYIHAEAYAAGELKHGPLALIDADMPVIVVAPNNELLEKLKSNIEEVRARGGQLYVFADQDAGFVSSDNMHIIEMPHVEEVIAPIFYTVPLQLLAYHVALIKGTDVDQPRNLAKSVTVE
Assay [12] addresses E. coli GlmS mutant GlmS*59 (strain 2123-59) (Escherichia coli, UniProt P17169). Description: GlmS sensitivity to inhibition by glucosamine-6-P. In kind it is biochemical. The following applies: 0-30 mM glucosamine-6-P; FIG. 5. On the procedure: as §2, §3
Assay [13] concerns the target E. coli GlmS mutant GlmS*64 (strain 2123-64) (Escherichia coli, UniProt P17169). Description: GlmS sensitivity to inhibition by glucosamine-6-P. In kind it is biochemical. The settings on record: 0-30 mM glucosamine-6-P; FIG. 5. On the procedure:
as §2, §3

The target in assay [14] is E. coli GlmS mutant GlmS*4 (strain 2123-4) (Escherichia coli, UniProt P17169). Nature of the assay: GlmS sensitivity to inhibition by glucosamine-6-P. In kind it is biochemical. The following applies: 0-30 mM glucosamine-6-P; FIG. 5. The method, then: as §2, §3
Sequence of E. coli GlmS mutant GlmS*4 (strain 2123-4) (P17169 whole entry, change not shown): as above
Assay [15] has as its system phosphoglucoisomerase (Pgi). Description: Effect of phosphorylated amino sugars on phosphoglucoisomerase activity (FIG. 15). The following applies: in vitro. It counts as biochemical. The source says: Therefore, effects of glucosamine-6-P and N-acetylglucosamine-6-P on several of the enzymes were examined.
The target in assay [16] is E. coli glucosamine synthase GlmS*54, SEQ ID NO:6 (Ala39Thr, Arg250Cys, Gly472Ser) (Escherichia coli, UniProt P17169, A39T/G472S/R250C). Nature of the assay: Effects of phosphorylated sugars on glucosamine synthase, crude extract of lactose-induced 7107-18 cells. In kind it is biochemical. The following applies: 10 mM or relatively high concentration. The method, then:
as §1

[17] abbreviates: 0-30 mM glucosamine-6-P, FIG. 5.

T2 sequence (P17169 2-609 limits assumed): as the sequence (P17169 2-609 L469P) above, with P468L counted along it
T5 sequence (P17169 2-609 E15K/D387V/S450P/E525G): as the sequence (P17169 2-609 L469P) above, with E14K, D386V, S449P, P468L, E524G counted along it
Sequence of E. coli GlmS mutant GlmS*69 (P17169 whole entry, change not shown): as the sequence (P17169 whole entry, change not shown) above
Sequence of E. coli GlmS mutant GlmS*59 (strain 2123-59) (P17169 whole entry, change not shown): as above
Sequence of E. coli GlmS mutant GlmS*64 (strain 2123-64) (P17169 whole entry, change not shown): as above
Sequence of E. coli glucosamine synthase GlmS*54, SEQ ID NO:6 (Ala39Thr, Arg250Cys, Gly472Ser) (P17169 whole entry A39T/R250C/G472S): as the sequence (P17169 whole entry, change not shown) above, with A39T, R250C, G472S counted along it

In the case of `N[C@H]1C(O)O[C@H](COP(=O)(O)O)[C@@H](O)[C@@H]1O` (stereo partly drawn) [glucosamine-6-P, glucosamine-6-phosphate], in [1], the activity at 10000 µM was determined as 70%. Also, the activity at 20000 µM in assay [1] worked out at 46%. In addition, the “inhibition of glucosamine synthetase (in words)” value in assay [1] is on record as “strong inhibition”; in assay [16], “strong inhibition on glucosamine synthetase at relatively high concentration”. Moreover, the Ki (commonly the equilibrium dissociation constant of an inhibitor or competing ligand from its target) stood at 560 µM in [2]; 4000 µM in assay [5]; 1250 µM in assay [7] (read-out: Ki (GlcN-6-P)); 1400 µM in [8]; 3500 µM in [9]; 1500 µM in [10]. In addition, in [11], the Ki was 1600 µM. In assay [2] (read-out: loss of activity at 1 mM glucosamine-6-P), the inhibition at 1000 µM was approximately 50%. Moreover, the “inhibition of phosphoglucoisomerase (literature)” value in [3] is recorded as “reported as an inhibitor of Pgi; also recorded: reported as an inhibitor of phosphoglucoisomerase”. Further, the “reported inhibitor of phosphoglucoisomerase (Pgi)” value in assay [4] is recorded as “inhibitor”. The “effect of glucosamine-6-P on enzyme activity” value in assay [5] (1 mM glucosamine-6-P, saturating substrates) is listed as “essentially has no effect on enzyme activity”. In addition, in assay [5] (read-out: activity remaining at 10 mM glucosamine-6-P), the remaining activity (in general, the activity still measured, relative to the control) at 10000 µM is approximately 50%. In addition, the “inhibition of glucose-6-P dehydrogenase (zwf)” value in assay [6] is listed as “more potent inhibitor of the enzyme than N-acetylglucosamine-6-P”. Further, the product resistance result in [7] (0, 2 and 4 mM glucosamine-6-P, FIG. 4) is reported as “product resistance very comparable to the E. coli mutant GlmS enzymes”. The “sensitivity to GlcN-6-P inhibition” value in assay [8] (setting [17]), in [9] (setting [17]), in assay [12], in [13] and in assay [14] was “reduced sensitivity to GlcN-6-P inhibition” in each case. The “inhibition of Pgi (in words)” value in assay [15] is recorded as “Inhibition is observed”.
